# Data taken from the supplement of paper PMC11451515.
# Legend:
# Settings in all cases: 48 h
# SEM cells [1] = experiment: cell viability relative to DMSO control; higher = less cytotoxic
# Method in brief: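 Before seeding, each leukemia line was adapted for at least four passages in each medium. NOMO1 or SEM cells (500 cells/well) and P12-Ichikawa cells (1000 cells/well) went into 1536-well plates at 5 μl, then received library compounds in DMSO by pin dosing across 11 threefold concentrations, 47 μM to 0.79 nM. Readout was CellTiter-Glo One luminescence after 48 h at 37°C, and viability is given as a per-plate percentage of DMSO wells, with cell-free wells as background.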
# NOMO1 = experiment: AUC of viability dose-response curve (% viability x log10 dose units); higher = less sensitive
# Method in brief: (§1)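 Area under the curve was integrated by trapezoidal rule from a log-logistic fit of normalised viability, with curves exceeding full viability scaled and quality-control failures removed. The fit had four parameters over log10 doses. Viability came from CellTiter-Glo One luminescence, normalised per plate to DMSO and cell-free wells, after leukemia cells adapted to each medium (500 or 1000 cells/well, 1536-well plates) were exposed to library compounds in DMSO for 48 h at 37°C. The 11 threefold doses ran from 47 μM to 0.79 nM.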
# SEM cells [2] = experiment: as above
# Method in brief: as §1
# P12-Ichikawa = experiment: as above
# Method in brief: as §1
# [3] = HPLM + 10% dialyzed FBS, 0.000781 µM
# [4] = HPLM + 10% dialyzed FBS, 0.00234 µM
# [5] = HPLM + 10% dialyzed FBS, 0.00702 µM
# [6] = HPLM + 10% dialyzed FBS, 0.0211 µM
# [7] = HPLM + 10% dialyzed FBS, 0.0632 µM
# [8] = HPLM + 10% dialyzed FBS, 0.19 µM
# [9] = HPLM + 10% dialyzed FBS, 0.569 µM
# [10] = HPLM + 10% dialyzed FBS, 1.71 µM
# [11] = HPLM + 10% dialyzed FBS, 5.12 µM
# [12] = HPLM + 10% dialyzed FBS, 15.4 µM
# [13] = HPLM + 10% dialyzed FBS, 46.1 µM
# [14] = RPMI 5 mM glucose + 10% dialyzed FBS
# [15] = RPMI 5 mM glucose + 10% FBS, 0.000781 µM
# [16] = RPMI 5 mM glucose + 10% FBS, 0.00234 µM
# [17] = RPMI 5 mM glucose + 10% FBS, 0.00702 µM
# [18] = RPMI 5 mM glucose + 10% FBS, 0.0211 µM
# [19] = RPMI 5 mM glucose + 10% FBS, 0.0632 µM
# [20] = RPMI 5 mM glucose + 10% FBS, 0.19 µM
# [21] = RPMI 5 mM glucose + 10% FBS, 0.569 µM
# [22] = RPMI 5 mM glucose + 10% FBS, 1.71 µM
# [23] = RPMI 5 mM glucose + 10% FBS, 5.12 µM
# [24] = RPMI 5 mM glucose + 10% FBS, 15.4 µM
# [25] = RPMI 5 mM glucose + 10% FBS, 46.1 µM
SMILES,cell viability (SEM cells [1]; [3]) [%],cell viability (SEM cells [1]; [4]) [%],cell viability (SEM cells [1]; [5]) [%],cell viability (SEM cells [1]; [6]) [%],cell viability (SEM cells [1]; [7]) [%],cell viability (SEM cells [1]; [8]) [%],cell viability (SEM cells [1]; [9]) [%],cell viability (SEM cells [1]; [10]) [%],cell viability (SEM cells [1]; [11]) [%],cell viability (SEM cells [1]; [12]) [%],cell viability (SEM cells [1]; [13]) [%],AUC of viability dose-response curve (NOMO1; HPLM + 10% dialyzed FBS),AUC of viability dose-response curve (NOMO1; RPMI 5 mM glucose + 10% FBS),AUC of viability dose-response curve (NOMO1; [14]),AUC of viability dose-response curve (SEM cells [2]; HPLM + 10% dialyzed FBS),AUC of viability dose-response curve (SEM cells [2]; RPMI 5 mM glucose + 10% FBS),AUC of viability dose-response curve (SEM cells [2]; [14]),AUC of viability dose-response curve (P12-Ichikawa; HPLM + 10% dialyzed FBS),AUC of viability dose-response curve (P12-Ichikawa; RPMI 5 mM glucose + 10% FBS),AUC of viability dose-response curve (P12-Ichikawa; [14]),cell viability (SEM cells [1]; [15]) [%],cell viability (SEM cells [1]; [16]) [%],cell viability (SEM cells [1]; [17]) [%],cell viability (SEM cells [1]; [18]) [%],cell viability (SEM cells [1]; [19]) [%],cell viability (SEM cells [1]; [20]) [%],cell viability (SEM cells [1]; [21]) [%],cell viability (SEM cells [1]; [22]) [%],cell viability (SEM cells [1]; [23]) [%],cell viability (SEM cells [1]; [24]) [%],cell viability (SEM cells [1]; [25]) [%]
CN(Cc1cc(Br)cc(Br)c1N)C1CCCCC1,99.1,122,123,130,104,133,104,133,121,130,108,444,464,448,472,461,441,468,471,470,,,,,,,,,,,
CC1=CC=C(C=C1)\C2=N\C3=CC=C(Cl)C=C3OC2,,,,,,,,,,,,451,439,457,427,418,392,439,424,440,,,,,,,,,,,
COc1ccc2c(c1OC)C(=O)O[C@H]2[C@H]1c2c(cc3c(c2OC)OCO3)CCN1C,,,,,,,,,,,,246,273,277,263,233,247,284,277,294,,,,,,,,,,,
CC(COc1ccccc1)N(CCCl)Cc1ccccc1 (configuration not stated),89.3,102,121,110,116,115,104,110,123,119,89.4,304,280,316,465,451,469,367,372,380,101,123,127,120,112,135,131,128,148,147,115
CC[S+](=O)([O-])N1CC(CC#N)(n2cc(-c3ncnc4[nH]ccc34)cn2)C1,,,,,,,,,,,,441,451,471,449,457,450,452,454,443,,,,,,,,,,,
C[S+](=O)([O-])CCNCc1ccc(-c2ccc3ncnc(Nc4ccc(OCc5cccc(F)c5)c(Cl)c4)c3c2)o1,,,,,,,,,,,,456,451,444,442,418,440,448,453,429,,,,,,,,,,,
C=C1C(=O)OC2/C=C(/C)CC/C=C(/C)CCC12 (configuration not stated),,,,,,,,,,,,444,463,457,455,449,446,454,442,448,,,,,,,,,,,
O=c1oc2c(O)c(O)cc3c(=O)oc4c(O)c(O)cc1c4c23,,,,,,,,,,,,455,454,466,471,467,451,444,452,458,,,,,,,,,,,
COc1ccccc1N1CCN(CCN(C(=O)C2CCCCC2)c2ccccn2)CC1,97.9,121,122,112,122,120,137,133,127,122,122,466,469,468,468,467,472,470,472,473,104,111,131,123,124,135,132,131,130,111,126
CCNC(=O)Nc1ccc2ncc(Nc3ccc(C)cc3)nc2n1,129,120,115,113,118,109,113,108,110,68.1,34.8,430,453,452,437,418,402,459,465,464,119,139,117,119,124,98.3,124,114,93.3,59.3,21.2
